Blank lines part the entries; values can stand above or below the compound they belong to.
What was measured:
[1] = system: PANC 1 human pancreatic carcinoma; assay: PANC 1 xenograft in nude mice: tumour growth; format: in vivo, nude mice (BALBc nu/nu); conditions: for average tumour size (% of the original tumour size): after 6 weeks; for final tumour weight: after 43 days
Method: FIG. 5). […] (5 mg/kg) or vehicle control.

[2] = mouse, in vivo
[3] = system: DMS-53 human lung carcinoma; assay: DMS-53 xenograft in nude mice, oral gavage: tumour growth; format: in vivo, nude mice (BALBc nu/nu); conditions: 10 mg/kg, 21 days
methemoglobin (metHb) = assay: metHb formation in vivo; parameters: species or system C57BL6 mice; conditions: 6 mg/kg intravenously, blood taken after 30 min
Method: FIG. 13. Effect of thiosemicarbazone chelators on metHb-formation in vivo. MetHb after Dp44mT, Triapine® or Dp4cycH4mT treatment in vivo at a dose of 6 mg/kg administered intravenously via the tail vein. Mice in the control group were treated with vehicle alone. At 30 minutes post-administration, whole blood was collected for determination of metHb levels.
(§1) The levels of metHb and metMb in RBC lysates were determined using a Shimadzu UV-Vis spectrophotometer (UV-1800; Shimadzu Corporation, Kyoto, Japan) at 577 nm and 630 nm for metHb and metMb in accordance with published methods (Winterbourn CC and Carrell R W (1977). Biochem J 165: 141-148).
(§2) C57BL6 mice (7-8 weeks-old) were used under a protocol approved by the university of Sydney Animal Ethics Committee. Dp44mT, Triapine® or Dp4cycH4mT (all at 6 mg/kg) were dissolved in 30% propylene glycol/saline and administered iv via the tail vein. Subsequently, 30 min after administration, mice were anesthetized with isoflurane and blood samples obtained by cardiac puncture. Blood samples were lysed with 2.5 volumes of ultrapure water for metHb estimation. Mice were sacrificed with isoflurane, the heart exhaustively perfused with HBSS and Mb isolated.

metmyoglobin (metMb) = assay: metMb formation in vivo; parameters: species or system C57BL6 mice; conditions: 6 mg/kg intravenously, 30 min post-administration, heart
Method: FIG. 14. Effect of thiosemicarbazone chelators on metMb-formation in vivo. MetMb levels after Dp44mT Triapine® or Dp4cycH4mT treatment in vivo at a dose of 6 mg/kg administered intravenously via the tail vein. Mice in the control group were treated with vehicle alone. At 30 min post-administration, whole hearts were collected for determination of metMb levels.
Mouse heart tissue was exhaustively perfused with ice-cold HBSS to remove blood and homogenized in ice-cold HBSS containing protease inhibitor cocktail (Roche, Basel, Switzerland). Heart homogenates were centrifuged (16,000×xg/45 min/4° C.) and the supernatant ([oxyMb]=50 μM) used immediately.
as §1, §2

p21 = assay: Western blot analysis, p21 expression; format: cell-based; conditions: MIAPaCa-2 cells
Method: (§3) Western analysis was performed via established protocols (Gao, J. and D. R. Richardson (2001). Blood 98: 842-50). The primary antibodies used were against NDRG1 (Abcam; UK), p21, cyclin D1, transferrin receptor 1 (TfR1; Santa Cruz, CA, USA) and β-actin (Sigma-Aldrich), with secondary HRP-conjugated goat and mouse antibodies (Sigma-Aldrich).
(§4) Dp4cycH4mT was examined to determine whether it could up-regulate NDRG-1 expression. To further evaluate the effect of the chelator Dp4cycH4mT on other key molecules involved in cell cycle progression, the expression of the cyclin-dependent kinase inhibitor, p21, as well as cyclin D1 in MIAPaCa-2 cells was also examined.

NDRG1 = assay: Western blot analysis, NDRG1 expression; format: cell-based; conditions: MIAPaCa-2 cells
Method: as §3, §4

[4] = system: DMS-53 human lung carcinoma; assay: DMS-53 xenograft in nude mice, i.v. administration: tumour growth; format: in vivo, nude mice (BALBc nu/nu); conditions: 0.75 mg/kg
cyclin D1 = assay: Western blot analysis, cyclin D1 levels; format: cell-based; conditions: MIAPaCa-2 cells
Method: as §3, §4

[5] = DMS-53 xenograft oral study: body and organ weights, haematology, biochemistry, histology; format: in vivo, nude mice (BALBc nu/nu)
[6] = DMS-53 xenograft i.v. study: body and organ weights, haematology, histology; format: in vivo, nude mice (BALBc nu/nu)
[7] = system: PANC 1 pancreatic cancer cells; assay: MTT proliferation assay, PANC 1; format: cell-based; conditions: Homo sapiens; PANC 1, MTT, 72 h
Method: (§5) The pancreatic cancer cell lines, including MIAPaCa-2, PANC 1, CAPAN-2 and CFPAC-1 were a generous gift from Prof. Andrew Biankin (Garvan Institute, NSW, Australia). The MIAPaCa-2, PANC 1 and CFPAC-1 cell lines were grown in DMEM medium (Invitrogen) and CAPAN-2 cells were grown in McCoy's medium (Invitrogen). All media was supplemented with 10% (v/v) fetal calf serum (Invitrogen), 1% (v/v) non-essential amino acids (Invitrogen), 1% (v/v) sodium pyruvate (Invitrogen), 2 mM L-glutamine (Invitrogen), 100 μg/mL of streptomycin (Invitrogen), 100 U/ml penicillin (Invitrogen), and 0.28 μg/mL of fungizone.
(§6) To further examine the spectrum of anti-proliferative activity, Dp4cycH4mT was tested against pancreatic cancer in vitro, performing MTT proliferation assays with PANC 1, MIAPaCa-2, CFPAC-1 and CAPAN-2 pancreatic cancer cells. As a comparison, currently used treatments for pancreatic cancer including gemcitabine and 5-fluorouracil were also tested. The iron chelator, DFO, was included as a positive control.
(§7) Table 2A. Anti-proliferative activity of Dp4cycH4mT against pancreatic cancer cell lines. Growth and antiproliferative activity IC50 (μM) values of Dp4cycH4mT in a variety of pancreatic cell lines and in comparison to DFO and the clinically used drugs gemcitabine and 5-fluorouracil as determined by the MTT assay. Cells were seeded and allowed to attach to wells for 24 h and then incubated for 72 h at 37° C. with control medium or the chelators. Results are mean±SD (3 experiments).
as §7, with “2B.” for “2A.”, “IC90” for “Growth and antiproliferative activity IC50”

[8] = system: CFPAC-1 pancreatic cancer cells; assay: MTT proliferation assay, CFPAC-1; format: cell-based; conditions: Homo sapiens; CFPAC-1, MTT, 72 h
Method: as §5, §6, §7
as §7, with “2B.” for “2A.”, “IC90” for “Growth and antiproliferative activity IC50”

[9] = system: MIAPaCa-2 pancreatic cancer cells; assay: MTT proliferation assay, MIAPaCa-2; format: cell-based; conditions: Homo sapiens, MIA PaCa-2; MIAPaCa-2, MTT, 72 h
Method: as §5, §6, §7
as §7, with “2B.” for “2A.”, “IC90” for “Growth and antiproliferative activity IC50”

[10] = system: transferrin receptor 1 (TfR1); assay: Western blot analysis, transferrin receptor 1 levels; format: cell-based; conditions: MIAPaCa-2 cells
Method: as §3, §4

[11] = system: CAPAN-2 pancreatic cancer cells; assay: MTT proliferation assay, CAPAN-2; format: cell-based; conditions: Homo sapiens; CAPAN-2, MTT, 72 h
Method: as §5, §6, §7
as §7, with “2B.” for “2A.”, “IC90” for “Growth and antiproliferative activity IC50”

[12] = system: human RBCs (methemoglobin formation); format: cell-based; conditions: 3 h, 25 μM
Method: FIG. 12. Effect of DFO and thiosemicarbazone chelators on metHb-formation in vitro. Whole RBCs were incubated with 1-25 μM chelator at 37° C. for 3 h. Cells were lysed with ultra-pure H2O and metHb levels were measured spectrophotometrically. Results are the mean±SD from 3 experiments.
Whole blood samples were collected from healthy human donors or mice in suitable blood collection tubes containing EDTA and used immediately. Red blood cells (RBCs) were isolated by centrifugation (480 xg/5 min/4° C.) then washed in Hank's balanced salt solution (HBSS). RBCs were resuspended 1:1 in HBSS and whole RBC assays were carried out at 37° C.
as §1
The effect of chelator concentration (1-25 μM) on metHb-generation with intact RBCs was assessed (FIG. 12). […] At 25 μM, these chelators increased metHb formation to 19.95±1.0 and 19.9±3.0% of total Hb, respectively (FIG. 12). The negative control chelator Dp2mT, by design, features a methyl group that hinders complex formation. Accordingly, this chelator cannot participate in the redox-interaction with iron that gives rise to metHb formation (FIG. 12).

[13] = gemcitabine 5 mg/kg intra-peritoneally every 3rd day

- KIDNEY Fe (score for presence of iron stained by Perl's stain) [2]: +/−
- SPLEEN HPC (score for the presence of haematopoietic cells in the splenic red pulp) [2]: N
- iron deposits in the kidney [2]: iron deposits were observed
- metHb (% of total Hb) (methemoglobin (metHb)): 6.3±0.8 % of total Hb
- levels of metMb (metmyoglobin (metMb)): 82.3±2.6%
- myocardial lesions (Gomori-Trichrome stain) ([5]; Dp44mT 0.75 mg/kg, Dp4e4mT.HCl 3 weeks at 2.5, 5, 7.5 and 10 mg/kg oral): myocardial lesions were observed
- histology of the liver, spleen, kidney, brain or tumour (H & E) vs control ([5]; Dp44mT 2 weeks at 0.75 mg/kg, Dp4e4mT.HCl 3 weeks at 2.5, 5, 7.5 and 10 mg/kg oral): no significant differences
- Brain weight ([5]; oral, 10 mg/kg): 0.363 ± 0.008 g
- Heart weight ([5]; oral, 10 mg/kg): 0.102 ± 0.005 g
- Kidney weight ([5]; oral, 10 mg/kg): 0.208 ± 0.004 g
- Liver weight ([5]; oral, 10 mg/kg): 0.88 ± 0.02 g
- Lung weight ([5]; oral, 10 mg/kg): 0.133 ± 0.008 g
- Spleen weight ([5]; oral, 10 mg/kg): 0.081 ± 0.005 g
- histology of the liver, spleen, kidney, brain or tumour (H & E) vs control ([6]; 2 weeks i.v., Dp44mT 0.75 mg/kg, Dp4e4mT.HCl 4 and 6 mg/kg): no significant differences
- myocardial lesions (Gomori-Trichrome stain) ([6]; 2 weeks i.v., Dp44mT 0.75 mg/kg, Dp4e4mT.HCl 4 or 6 mg/kg): myocardial lesions were observed
- change in red blood cell count, haemoglobin or white blood cell count ([6]; after 2 weeks, Dp44mT 0.75 mg/kg, Dp4e4mT.HCl 1.5, 4 or 6 mg/kg i.v.): no significant change
- HCT ([6]; i.v., 0.75 mg, average): 0.43
- HGB ([6]; i.v., 0.75 mg, average): 135.50 g/L
- PLT ([6]; i.v., 0.75 mg, average): 1274.50 10 × 9 cells/L
- RBC ([6]; i.v., 0.75 mg, average): 9.87 10 × 12 cells/L
- WBC ([6]; i.v., 0.75 mg, average): 5.38 10 × 9 cells/L
- Brain weight ([6]; i.v., 0.75 mg/kg): 0.32 ± 0.01 g
- Heart weight ([6]; i.v., 0.75 mg/kg): 0.11 ± 0.01 g
- Kidney weight ([6]; i.v., 0.75 mg/kg): 0.23 ± 0.01 g
- Liver weight ([6]; i.v., 0.75 mg/kg): 1.04 ± 0.05 g
- Spleen weight ([6]; i.v., 0.75 mg/kg): 0.13 ± 0.02 g
- weight loss (% of initial weight) ([6]; i.v., 0.75 mg/kg): 9%
Structure (SMILES): CN(C)C(=S)NN=C(c1ccccn1)c1ccccn1 [Dp44mT, di-2-pyridylketone 4,4-dimethyl-3-thiosemicarbazone, reference compound]
- average tumour size (% of the original tumour size) ([1]; 0.4 mg/kg i.v. 5 days/week): 305%
- final tumour weight ([1]; 0.4 mg/kg i.v.): 122 ± 33 mg
- Tumour weight [3]: 0.46 ± 0.1 g
- p21 expression (p21): markedly (p<0.05) increasing
- NDRG1 expression (NDRG1): significantly (p<0.01) up-regulated
- Tumour weight [4]: 0.1 ± 0.02 g
- net tumour size (% of the initial tumour volume) ([4]; after 25 days): 122%
- cyclin D1 levels (cyclin D1): significantly (p<0.05) reduced
- Body weight (% initial) ([5]; oral, 10 mg/kg): 93.6 ± 1.8 % initial
- Body weight (% of initial weight) ([6]; i.v., 0.75 mg/kg): 91.01 ± 5.3 % initial weight

- IC50 [7]: 11 ± 0.8 µM
- IC90 [7]: > 5 µM
- KIDNEY Fe (score for presence of iron stained by Perl's stain) [2]: −
- LIVER HP (histopathological changes) [2]: N
- LUNG HP (histopathological changes) [2]: N
- MYOCARDIUM Fibrosis [2]: −
- MYOCARDIUM HP (histopathological changes) [2]: N
- SPLEEN HPC (score for the presence of haematopoietic cells in the splenic red pulp) [2]: N
- iron deposits in the kidney [2]: no evidence of iron deposits
- IC50 [8]: 0.02 ± 0.02 µM
- IC90 [8]: 30.4 ± 2.2 µM
- IC50 [9]: 0.02 ± 0.005 µM
- IC90 [9]: > 5 µM
- IC50 [11]: 40.8 ± 4.7 µM
- IC90 [11]: > 5 µM
Structure (SMILES): Nc1ccn([C@@H]2O[C@H](CO)[C@@H](O)C2(F)F)c(=O)n1 [Gemcitabine, gemcitabine]
- Tumour weight ([1]; Gemcitabine 5 mg/kg/day): 0.07 ± 0.02 g
- average tumour size (% of the original tumour size) [1, 13]: 319%
- final tumour weight [1, 13]: 67 ± 25 mg
- p21 expression (p21): did not modulate
- NDRG1 expression (NDRG1): no marked effect
- cyclin D1 levels (cyclin D1): did not modulate
- TfR1 levels [10]: did not modulate

Structure (SMILES): NC(=S)NN=Cc1ncccc1N [Triapine®, 3-aminopyridine-2-carboxaldehyde thiosemicarbazone]
- levels of metMb (metmyoglobin (metMb)): 75.2±4.2%
- metHb formation (% of total Hb) [12]: 19.95±1.0 % of total Hb
